Data reported in patent US5849771A, “Phosphorylated nitrone derivatives, method for preparing same, and compositions containing said derivatives” (Centre National de la Recherche Scientifique (C.N.R.S.), priority 1995, dated 1998).
Like-named read-outs stand apart in the source and are kept apart here.

Tests used:
[1] = Kinetics of decomposition (EPR) of superoxide trapping adducts (nitrone-OOH) in phosphate buffer medium; details: for Half-life time: decay of nitrone-OOH adduct, 0.1M phosphate buffer pH=5.8; for order of kinetics of disappearance of the adducts: phosphate buffer pH=5.8; for adduct degradation, times less quickly than the POBN--OOH adducts: phosphate buffer, relative to POBN--OOH
Text: The adducts from trapping with the superoxide radical were produced using the riboflavin-DTPA (diethylenetriaminepentaacetic acid) system.
This system contains 1M of DTPA, […] of riboflavin and 0.1M of nitrone in a 0.1M phosphate buffer at pH=5.8.
This mixture is transferred into the cell of a Varian E-9 spectrometer. The cell is then irradiated to generate the superoxide radical in situ. At the end of irradiation the decrease in the adducts (nitrone-OOH) is studied using EPR analysis.

[2] = for adduct degradation, times more slowly than the POBN--OOH and PBN--OOH adducts: organic medium (DMF, pyridine), relative to POBN--OOH and PBN--OOH
Text: The adducts from trapping with the superoxide radical were produced using the lumiflavin-DTPA system in pyridine, or dimethylformamide. This contains […] of DTPA, […] of lumiflavin and 0.1M of nitrone in pyridine or dimethylformamide.
The operating procedure followed for the study of the decrease of the adduct from trapping is the same as above.

physchem = details: for lipophilic/hydrophilic character: from partition coefficients, n-octanol/phosphate buffer; for logD at 1 h: n-octanol/10 mm phosphate buffer, pH 7.4
Method: Biol. Med. 14 (1993) 127. The partition coefficients are defined simply as the ratio of the nitrone concentration in the lipophilic phase (n-octanol) to the nitrone concentration in the aqueous phase.
Identical volumes (2 cm^3) of the octanolic nitrone solution prepared above and of a 10 mM phosphate buffer of pH=7.4 are agitated vigorously at 37° C. for 1 hour and the two phases are then separated by centrifuging (1000 g for 20 s) . The respective nitrone concentrations in each phase are then measured.

[3] = EPR spin trapping of HO^. radicals (Fenton's method); details: phosphate buffer pH=7
Method: In this experiment the HO^. radicals were produced by Fenton's method in a 1.1M phosphate buffer at pH=7 in the presence of the […] system. This classical reaction for producing HO^. radicals can be expressed more simply as follows:
H2 O2 +Fe(II)→HO^. +HO-+Fe(III).
The EPR spectrum of the adduct from trapping is recorded approximately 40 s after addition of the ferrous sulphate.
(§1) The stability of these adducts makes it possible to measure the respective coupling constants of the unpaired electron with the nuclei of nitrogen (AN), of hydrogen β to the nitrogen atom (AH) and of phosphorus (AP). These values have been shown together in Table 3 which follows: […]

[4] = EPR spin trapping of O2^.-/HOO^. radicals (hypoxanthine/xanthine oxidase system); details: for EPR detection of trapping adduct: HOO^. radicals, hypoxanthine/xanthine oxidase, 0.1M phosphate buffer
Method: For the production of the HOO^. radicals the hypoxanthine/xanthine oxidase system is employed in a 0.1M phosphate buffer maintained at ambient temperature. The oxygen resulting in the formation of the HOO^. radicals is that initially dissolved in the 0.1M phosphate buffer.
The hypoxanthine/xanthine oxidase system contains 0.1M of a phosphate buffer, […] of hypoxanthine, 1 mM of diethylenetriaminepentaacetic acid (DTPA), 0.4 units cm^-3 of xanthine oxidase (marketed by the company Boehringer Mannheim Biochemica Co.), and 0.1M of the nitrone being tested. The EPR spectra of the adducts from trapping are recorded approximately 40 s after the addition of xanthine oxidase.
as §1

[5] = cerebral ischaemia-reperfusion or cerebral aging; cited from earlier work

For `CC(C)(C)[N+]([O-])=Cc1cc[n+]([O-])cc1` [POBN, α-(1-oxydopyridin-1-ium-4-yl)-N-tert-butylnitrone, reference compound], the Half-life time [1] was 0.317 min, the “order of kinetics of disappearance of the adducts” value (shortened to “order”) [1] was “first order” and the Half-life time ([2]; DMF) was 5.05 min. For the same compound, the Half-life time ([2]; pyridine) was 5.23 min.
In the case of `CCOP(=O)(OCC)C(C)(C)[N+]([O-])=Cc1ccc(Cl)cc1` [Example 4, Diethyl 1-[[N-(4-chlorophenyl)formylene]-N-oxyamino]-1-methylethylphosphonate], the lipophilic/hydrophilic character (physchem) is reported as “hydrophilic”, the logD at 1 h (physchem) is reported as -0.745 and the Half-life time ([2]; DMF) is reported as 15.2 min. For the same compound, the “adduct degradation, times more slowly than the POBN--OOH and PBN--OOH adducts” value [2] was “approximately three”, the Half-life time ([2]; pyridine) was 20.17 min and the k ([2]; pyridine) was 0.573 ± 0.001 10^3 s^-1.
In the case of `CCOP(=O)(OCC)C(C)(C)[N+]([O-])=Cc1cc[n+]([O-])cc1` [Example 2, Diethyl 1-[N-oxy-N-[4-(N'-oxypyridyl)formylene]amino]-1-methylethylphosphonate], the lipophilic/hydrophilic character (physchem) is reported as “lipophilic”, the logD at 1 h (physchem) is reported as 2.29 and the Half-life time [1] is reported as 7.08 min. The “order” value [1] was “first order”, the “adduct degradation, times less quickly than the POBN--OOH adducts” value [1] was “approximately 20 times” and the Half-life time ([2]; DMF) was 16.2 min. The k ([2]; DMF) was 0.714 ± 0.007 10^3 s^-1, the “adduct degradation, times more slowly than the POBN--OOH and PBN--OOH adducts” value [2] was “approximately three” and the Half-life time ([2]; pyridine) was 21.05 min. The k ([2]; pyridine) was 0.549 ± 0.003 10^3 s^-1.
For `CCOP(=O)(OCC)C(C)(C)[N+]([O-])=Cc1ccccc1` [Example 1, Diethyl 1-(N-benzylidene-N-oxy)amino-1-methylethyl-phosphonate], the “EPR detection of trapping adduct” value [3] was “formation of the adducts”, the “EPR detection of trapping adduct” value [4] was “formation of the adducts” and the Half-life time [1] was 5.12 min. For the same compound, the “order” value [1] was “first order” and the “adduct degradation, times less quickly than the POBN--OOH adducts” value [1] was “approximately 20 times”.
In the case of `CC(C)(C)[N+]([O-])=Cc1ccccc1` [PBN, α-phenyl-tert-butylnitrone, reference compound], the “EPR detection of trapping adduct” value [3] is reported as “No signal could be detected”, the “detection of the radical O2^.-” value ([4]; EPR spin trapping) is reported as “cannot be carried out” and the “EPR detection of trapping adduct” value [4] is reported as “No signal could be detected”. The Half-life time ([2]; DMF) was 4.18 min, the Half-life time ([2]; pyridine) was 4.42 min and the “reversal of the harmful effects of oxygen-containing free radicals” value [5] was “particularly effective”.
